Our source for the IC50 values is patent US7402606B2, “Derivatives of 1-(oxoaminoacetyl) pentylcarbamate as cathepsin K inhibitors for the treatment of bone loss” (SmithKline Beecham Corporation, priority 2002, dated 2008).

Common to all, as to format: biochemical
One assay addresses human cathepsin V (Homo sapiens, UniProt O60911). In words: Cathepsin V inhibition assay, human recombinant enzyme, Cbz-Phe-Arg-AMC. To be noted: Table 2, human cathepsin V; read-out: h Cat V IC50. On the procedure:
(§1) All assays for cathepsin K were carried out with human and rat recombinant enzyme. Assays for cathepsins S ? V were also carried out with human recombinant enzyme. Assays for human cathepsins B, H, and L were carried out with enzyme, purchased from Athens Research and Technology, Inc., prepared from human liver tissue. Standard assay conditions for the determination of kinetic constants used a fluorogenic peptide substrate, typically (5S,8S)-13-amino-5-benzyl-13-imino-3-methylene-N-(4-methyl-2-oxo-2H-chromen-7-yl)-6-oxo-1-phenyl-2-oxa-4,7,12triazatridecane-8-carboxamide (Cbz-Phe-Arg-AMC), and were determined in 100 mM sodium acetate at pH 5.5 containing 10 mM dithiothreitol and 120 mM sodium chloride. […]
(§2) All assays contained 10% dimethyl sulfoxide. […] Product fluorescence (excitation at 360 nm; emission at 440 nm, (except cathepsin H which used excitation at 340 nm; emission at 420 nm)) was monitored with a PerSeptive Biosystems Cytofluor II fluorescence plate reader. […]
(§3) Potential inhibitors were evaluated using the progress curve method. […] For those compounds whose progress curves were linear, the enzymatic activity (RATE) was plotted against the concentration of test compound, including inhibitor concentration of zero ([I]=0), and the IC50 determined from a fit of equation 1 to the data, RATE=Vmax/(1+([I]/IC50)) (1) where Vmax is the best fit estimate of the maximal enzymatic activity. […]

The next assay concerns the target human cathepsin S (Homo sapiens, UniProt P25774). Briefly: Cathepsin S inhibition assay, human recombinant enzyme, Cbz-Val-Val-Arg-AMC. The note with it: Table 2, human cathepsin S; read-out: h Cat S IC50. On the procedure:
as §1, §2, §3

A further assay has as its target T1, human cathepsin K (Homo sapiens, UniProt P43235).
T1 construct: The proform of cathepsin K was converted to mature cathepsin K by brief exposure to pH 4; made in house; host or cells: baculovirus; Trichoplusia ni High Five cells (virus raised in Sf-9)
T1 sequence (P43235 115-329): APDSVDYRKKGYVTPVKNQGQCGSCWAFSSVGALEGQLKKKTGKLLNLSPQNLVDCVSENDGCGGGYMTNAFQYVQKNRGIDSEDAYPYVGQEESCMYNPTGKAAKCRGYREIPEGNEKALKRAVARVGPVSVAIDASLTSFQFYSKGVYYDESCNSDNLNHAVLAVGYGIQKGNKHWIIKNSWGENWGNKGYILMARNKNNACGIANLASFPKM
Briefly: Cathepsin K inhibition assay, human recombinant enzyme, fluorogenic substrate Cbz-Phe-Arg-AMC. To be noted: read-out: h Cat K IC50. The gist of the method: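 Recombinant human cathepsin K (baculovirus/insect-cell proform, activated at pH 4 with 5 mM L-cysteine) assayed with 10 μM Cbz-Phe-Arg-AMC, 10% DMSO, 30 °C.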

Read-outs that look alike come from different tables or passages of the source.

human cathepsin V, sequence (O60911 114-334): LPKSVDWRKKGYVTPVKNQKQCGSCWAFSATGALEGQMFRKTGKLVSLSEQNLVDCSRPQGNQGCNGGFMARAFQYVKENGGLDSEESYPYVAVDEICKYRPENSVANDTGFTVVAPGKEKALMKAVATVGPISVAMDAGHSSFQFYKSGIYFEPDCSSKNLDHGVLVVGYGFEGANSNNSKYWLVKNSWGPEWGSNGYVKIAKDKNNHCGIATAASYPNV
human cathepsin S, sequence (P25774 115-331): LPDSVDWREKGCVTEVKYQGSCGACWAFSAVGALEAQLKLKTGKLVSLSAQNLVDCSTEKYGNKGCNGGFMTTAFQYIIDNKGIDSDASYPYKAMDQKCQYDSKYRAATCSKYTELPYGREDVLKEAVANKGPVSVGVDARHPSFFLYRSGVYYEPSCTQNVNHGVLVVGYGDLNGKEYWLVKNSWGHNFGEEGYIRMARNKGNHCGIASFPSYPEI

The term IC50 denotes the midpoint of a concentration-inhibition curve. Take `CCCC[C@H](NC(=O)O[C@@H]1CN(C(=O)Nc2ccc(C(F)(F)F)cc2)CC1(C)C)C(=O)C(=O)Nc1ccn[nH]1` [Example 71, (3S)-4,4-dimethyl-1-{[4-(trifluoromethyl)anilino]carbonyl}pyrrolidinyl (1S)-1-[oxo(1H-pyrazol-5-ylamino)acetyl]pentylcarbamate]: the IC50 at human cathepsin V fell in the range of 10 to 100 nM; on human cathepsin S, 1 to 10 nM; on human cathepsin K (Table 1, human cathepsin K), 0.1 to 1 nM; on human cathepsin K (Table 2, human cathepsin K) it was 0.1 to 1 nM.
Turning to `CCCC[C@H](NC(=O)O[C@@H]1CN(c2nnc(C(F)(F)F)s2)CC1(C)C)C(=O)C(=O)Nc1ccn[nH]1` [Example 82, (3S)-4,4-Dimethyl-1-[5-(trifluoromethyl)-1,3,4-thiadiazol-2-yl]pyrrolidinyl-(1S)-1-[oxo(1H-pyrazol-5-ylamino)acetyl]pentylcarbamate], the IC50 at human cathepsin V was 10 to 100 nM; at human cathepsin S, 10 to 100 nM; at human cathepsin K (Table 1, human cathepsin K), 0.1 to 1 nM; on human cathepsin K (Table 2, human cathepsin K), 0.1 to 1 nM.
